Assay results: ChEMBL document CHEMBL1143774, “Parallel strategies for the preparation and selection of liver-targeted glucocorticoid receptor antagonists” (Bioorg Med Chem Lett, 2007)

What was measured:
Glucocorticoid receptor [1] = target: T1, Glucocorticoid receptor (Homo sapiens, UniProt P04150); assay: Inhibition of human GR expressed in hGRAF cells; assay type: cell-based
T1 sequence (P04150 whole entry): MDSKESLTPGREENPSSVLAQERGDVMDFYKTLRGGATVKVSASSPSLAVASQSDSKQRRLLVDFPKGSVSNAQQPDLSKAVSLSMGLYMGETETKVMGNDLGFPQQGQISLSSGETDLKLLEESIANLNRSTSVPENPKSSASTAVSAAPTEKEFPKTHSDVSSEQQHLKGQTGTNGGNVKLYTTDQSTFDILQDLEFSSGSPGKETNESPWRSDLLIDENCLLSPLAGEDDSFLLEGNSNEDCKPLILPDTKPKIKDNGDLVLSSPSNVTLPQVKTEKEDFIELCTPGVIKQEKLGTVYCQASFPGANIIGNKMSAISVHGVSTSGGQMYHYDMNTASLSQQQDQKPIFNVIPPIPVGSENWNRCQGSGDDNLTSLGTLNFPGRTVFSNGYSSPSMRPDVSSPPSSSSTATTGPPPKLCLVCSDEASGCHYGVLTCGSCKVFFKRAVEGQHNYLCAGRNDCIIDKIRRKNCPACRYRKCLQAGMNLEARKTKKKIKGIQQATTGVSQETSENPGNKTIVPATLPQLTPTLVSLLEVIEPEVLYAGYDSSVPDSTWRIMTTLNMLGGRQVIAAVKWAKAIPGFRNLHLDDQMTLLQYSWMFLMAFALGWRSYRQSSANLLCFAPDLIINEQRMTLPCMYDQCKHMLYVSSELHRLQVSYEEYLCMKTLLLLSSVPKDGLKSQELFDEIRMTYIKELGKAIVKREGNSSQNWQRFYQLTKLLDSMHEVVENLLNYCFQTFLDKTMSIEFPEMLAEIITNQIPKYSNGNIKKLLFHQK

Glucocorticoid receptor [2] = target: T1, Glucocorticoid receptor; assay: Inhibition of human GR transcriptional activation by HepTAT cells; assay type: cell-based
Glucocorticoid receptor [3] = target: T1, Glucocorticoid receptor; assay: Displacement of radiolabeled Dexamethasone from human GR
Rattus norvegicus [4] = assay: Inhibition of prednisilone-induced lymphopenia in Sprague-Dawley rats at 100 mg/kg, po; assay type: functional
Rattus norvegicus [5] = assay: Inhibition of prednisilone-induced TAT level in Sprague-Dawley rats at 100 mg/kg, po; assay type: functional
Rattus norvegicus [6] = assay: Inhibition of prednisilone-induced glycogen depostion in Sprague-Dawley rats at 100 mg/kg, po; assay type: functional
[7] = Drug level in Sprague-Dawley rat liver after 1 hr; assay type: ADME, tissue-based; conditions: read-out: Activity
[8] = Ratio of drug level in liver to plasma in Sprague-Dawley rat at 1 hr; assay type: ADME, tissue-based; conditions: liver and plasma

## CC#C[C@]1(O)CC[C@H]2[C@@H]3CCC4=CC(=O)CCC4=C3[C@@H](c3ccc(N(C)CC(=O)N(Cc4ccccc4)Cc4ccc(C(=O)O)cc4)cc3)C[C@@]21C
Glucocorticoid receptor [1]
  Ki: 39 nM
Glucocorticoid receptor [2]
  Ki: 57 nM
Glucocorticoid receptor [3]
  Ki: 1.1 nM

## CC#C[C@]1(O)CC[C@H]2[C@@H]3CCC4=CC(=O)CCC4=C3[C@@H](c3ccc(N(C)Cc4ccc(C(=O)N[C@H](CCSC)C(=O)O)cc4OC)cc3)C[C@@]21C
Rattus norvegicus [4]
  inhibition in vivo at 100 mg/kg: -4%
Rattus norvegicus [5]
  inhibition in vivo at 100 mg/kg: -27%
Rattus norvegicus [6]
  inhibition in vivo at 100 mg/kg: 8%

## CC#C[C@]1(O)CC[C@H]2[C@@H]3CCC4=CC(=O)CCC4=C3[C@@H](c3ccc(N(C)Cc4ccc(C(C)C(=O)O)cc4)cc3)C[C@@]21C (stereo partly drawn)
[7]
  concentration at 1 h: 37000 ng/g
[8]
  Kp at 1 h: 17

## CC#C[C@]1(O)CC[C@H]2[C@@H]3CCC4=CC(=O)CCC4=C3[C@@H](c3ccc(N(C)CC(=O)N(C)Cc4cccc(C(=O)O)c4)cc3)C[C@@]21C
Rattus norvegicus [4]
  inhibition in vivo at 100 mg/kg: -10%
Rattus norvegicus [5]
  inhibition in vivo at 100 mg/kg: 20%
Rattus norvegicus [6]
  inhibition in vivo at 100 mg/kg: 9%

## CC#C[C@]1(O)CC[C@H]2[C@@H]3CCC4=CC(=O)CCC4=C3[C@@H](c3ccc(N(C)Cc4ccc(C(=O)O)cc4)cc3)C[C@@]21C
Rattus norvegicus [4]
  inhibition in vivo at 100 mg/kg: 123%
Rattus norvegicus [5]
  inhibition in vivo at 100 mg/kg: 106%
Glucocorticoid receptor [1]
  Ki: 12 nM
Rattus norvegicus [6]
  inhibition in vivo at 100 mg/kg: 94%
Glucocorticoid receptor [2]
  Ki: 52 nM
Glucocorticoid receptor [3]
  Ki: 1.8 nM

## CC#C[C@]1(O)CC[C@H]2[C@@H]3CCC4=CC(=O)CCC4=C3[C@@H](c3ccc(N(C)CC(=O)Nc4nc(CC(=O)O)cs4)cc3)C[C@@]21C
Glucocorticoid receptor [1]
  Ki: 765 nM
Glucocorticoid receptor [2]
  Ki: 31 nM
Glucocorticoid receptor [3]
  Ki: 35 nM

## CC#C[C@]1(O)CC[C@H]2[C@@H]3CCC4=CC(=O)CCC4=C3[C@@H](c3ccc(N(C)Cc4ccc(C(=O)NCC(=O)O)cc4)cc3)C[C@@]21C
Rattus norvegicus [4]
  inhibition in vivo at 100 mg/kg: 40%
Rattus norvegicus [5]
  inhibition in vivo at 100 mg/kg: 48%
Glucocorticoid receptor [1]
  Ki: 90 nM
Rattus norvegicus [6]
  inhibition in vivo at 100 mg/kg: 47%
Glucocorticoid receptor [2]
  Ki: 36 nM
Glucocorticoid receptor [3]
  Ki: 0.6 nM

## CC#C[C@]1(O)CC[C@H]2[C@@H]3CCC4=CC(=O)CCC4=C3[C@@H](c3ccc(N(C)CC(=O)N(Cc4ccc(C(=O)O)cc4)c4ccc(Br)cc4)cc3)C[C@@]21C
Glucocorticoid receptor [1]
  Ki: 33 nM
Glucocorticoid receptor [2]
  Ki: 33 nM
Glucocorticoid receptor [3]
  Ki: 0.9 nM

## CC#C[C@]1(O)CC[C@H]2[C@@H]3CCC4=CC(=O)CCC4=C3[C@@H](c3ccc(N(C)Cc4cccc(C(=O)O)c4)cc3)C[C@@]21C
Glucocorticoid receptor [1]
  Ki: 30 nM
Glucocorticoid receptor [2]
  Ki: 112 nM
Glucocorticoid receptor [3]
  Ki: 3 nM

## CC#C[C@]1(O)CC[C@H]2[C@@H]3CCC4=CC(=O)CCC4=C3[C@@H](c3ccc(N(C)CC(=O)N(C)c4ccc(C(=O)O)cc4)cc3)C[C@@]21C
Glucocorticoid receptor [1]
  Ki: 21 nM
Glucocorticoid receptor [2]
  Ki: 64 nM
Glucocorticoid receptor [3]
  Ki: 0.5 nM

## CC#C[C@]1(O)CC[C@H]2[C@@H]3CCC4=CC(=O)CCC4=C3[C@@H](c3ccc(N(C)CCCCC(=O)O)cc3)C[C@@]21C
Glucocorticoid receptor [1]
  Ki: 15 nM
Glucocorticoid receptor [2]
  Ki: 127 nM
Glucocorticoid receptor [3]
  Ki: 4.8 nM

## CC#C[C@]1(O)CC[C@H]2[C@@H]3CCC4=CC(=O)CCC4=C3[C@@H](c3ccc(N(C)CC(=O)Nc4ccc(C(=O)O)cc4)cc3)C[C@@]21C
Glucocorticoid receptor [1]
  Ki: 91.8 nM
Glucocorticoid receptor [2]
  Ki: 75 nM
Glucocorticoid receptor [3]
  Ki: 2.7 nM

## CC#C[C@]1(O)CC[C@H]2[C@@H]3CCC4=CC(=O)CCC4=C3[C@@H](c3ccc(N(C)Cc4ccc(CC(=O)O)cc4)cc3)C[C@@]21C
Rattus norvegicus [4]
  inhibition in vivo at 100 mg/kg: 117%
Rattus norvegicus [5]
  inhibition in vivo at 100 mg/kg: 95%
Glucocorticoid receptor [1]
  Ki: 4.4 nM
Rattus norvegicus [6]
  inhibition in vivo at 100 mg/kg: 101%
Glucocorticoid receptor [2]
  Ki: 32 nM
Glucocorticoid receptor [3]
  Ki: 1.8 nM

## CC#C[C@]1(O)CC[C@H]2[C@@H]3CCC4=CC(=O)CCC4=C3[C@@H](c3ccc(N(C)Cc4ccc(C(=O)NCc5cccc(C(=O)O)c5)cc4)cc3)C[C@@]21C
Rattus norvegicus [4]
  inhibition in vivo at 100 mg/kg: -10%
Rattus norvegicus [5]
  inhibition in vivo at 100 mg/kg: 3%
Rattus norvegicus [6]
  inhibition in vivo at 100 mg/kg: -12%

## CC#C[C@]1(O)CC[C@H]2[C@@H]3CCC4=CC(=O)CCC4=C3[C@@H](c3ccc(N(C)C)cc3)C[C@@]21C [MIFEPRISTONE]
Rattus norvegicus [4]
  inhibition in vivo at 100 mg/kg: 104%
Rattus norvegicus [5]
  inhibition in vivo at 100 mg/kg: 101%
Rattus norvegicus [6]
  inhibition in vivo at 100 mg/kg: 77%
